Earlier results, collected in article PMC2970513 (Chemical biology & drug design, 2009).

Test system: μ receptor
Conditions: compared with the N-methylated cyclic peptides of this paper

H-Tyr-D-Ala(NMe)-Phe-Sar-NH2
μ receptor binding affinity, fold lower than those of the N-methylated cyclic peptides described here: 30-80 fold
